Assay results as given in the Kinase Knowledgebase extract (Sharma et al. 2016).

Columns and labels:
[1] = biological target: MAPK14 (human) (UniProt Q16539); test: Inhibition of p38 MAP Kinase in Whole Blood
[2] = biological target: MAPK14 (mouse); test: Inhibition of MAPK14 Kinase Activity
[3] = biological target: MAPK14 (human) (UniProt Q16539); test: Inhibition of TNF-alpha Release in THP-1 Cell; settings: thp1

Chain of MAPK14 (human) (Q16539 whole entry, looked up): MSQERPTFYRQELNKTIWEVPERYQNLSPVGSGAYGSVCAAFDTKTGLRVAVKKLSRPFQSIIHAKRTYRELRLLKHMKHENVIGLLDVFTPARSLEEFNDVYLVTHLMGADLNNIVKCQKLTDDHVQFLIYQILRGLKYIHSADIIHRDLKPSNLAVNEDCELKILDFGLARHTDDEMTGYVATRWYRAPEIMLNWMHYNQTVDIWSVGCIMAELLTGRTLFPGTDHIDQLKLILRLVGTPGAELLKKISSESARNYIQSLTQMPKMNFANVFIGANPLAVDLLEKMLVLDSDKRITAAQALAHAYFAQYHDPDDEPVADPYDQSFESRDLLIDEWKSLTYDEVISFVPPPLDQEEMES

Compound: CC(C)N1CCN(c2cc3c(nc2Sc2ccc(F)cc2F)CNC(=O)N3c2c(Cl)cccc2Cl)CC1
- IC50 [1]: 170 nM

Compound: O=c1ncc2nc(Sc3ccc(F)cc3F)ccc2n1-c1c(Cl)cccc1Cl
- IC50 [2]: 600 nM

Compound: O=C1NCc2nc(Sc3ccc(F)cc3F)c(N3CCOCC3)cc2N1c1c(Cl)cccc1Cl
- IC50 [3]: 22 nM
- IC50 [1]: 400 nM

Compound: O=C1NCc2nc(Sc3ccc(F)cc3F)c(N3CC4CC3CN4)cc2N1c1c(Cl)cccc1Cl (centres undefined)
- IC50 [3]: 1.5 nM
- IC50 [1]: 11.2 nM

Compound: O=C1NCc2nc(Sc3ccc(F)cc3F)c(N3CCC(CCN4CCCC4)CC3)cc2N1c1c(Cl)cccc1Cl
- IC50 [3]: 7.3 nM
- IC50 [1]: 940 nM

Compound: O=C1NCc2nc(Sc3ccc(F)cc3F)c(N3CC4CC3CN4CC3CC3)cc2N1c1c(Cl)cccc1Cl (centres undefined)
- IC50 [3]: 1.2 nM
- IC50 [1]: 51 nM

Compound: CC1CN(c2cc3c(nc2Sc2ccc(F)cc2F)CNC(=O)N3c2c(Cl)cccc2Cl)CC(C)O1 (centres undefined)
- IC50 [3]: 25 nM
- IC50 [1]: 72 nM

Compound: O=C1NCc2nc(Sc3ccc(F)cc3F)c(OC3CCNCC3)cc2N1c1c(Cl)cccc1Cl
- IC50 [1]: 63 nM

Compound: O=C1NCc2nc(Sc3ccc(F)cc3F)c(N3CC4CCC3C4)cc2N1c1c(Cl)cccc1Cl (centres undefined)
- IC50 [3]: 500 nM

Compound: O=C1NCc2nc(Sc3ccc(F)cc3F)c(N3CCNCC3)cc2N1c1c(Cl)cccc1Cl
- IC50 [3]: 5 nM
- IC50 [1]: 20 nM

Compound: CC(C)N1CC2CC1CN2c1cc2c(nc1Sc1ccc(F)cc1F)CNC(=O)N2c1c(Cl)cccc1Cl (centres undefined)
- IC50 [3]: 1.6 nM
- IC50 [1]: 65 nM

Compound: O=C1NCc2nc(Sc3ccc(F)cc3F)c(NC3CCNCC3)cc2N1c1c(Cl)cccc1Cl
- IC50 [3]: 9 nM
- IC50 [1]: 17 nM

Compound: O=C1NCc2nc(Sc3ccc(F)cc3F)c(N3CCN(CCN4CCCC4)CC3)cc2N1c1c(Cl)cccc1Cl
- IC50 [3]: 2 nM
- IC50 [1]: 9 nM

Compound: CCN1CC2CC1CN2c1cc2c(nc1Sc1ccc(F)cc1F)CNC(=O)N2c1c(Cl)cccc1Cl (centres undefined)
- IC50 [3]: 1.3 nM
- IC50 [1]: 42 nM

Compound: O=C1NCc2nc(Sc3ccc(F)cc3F)c(N3CCCCC3)cc2N1c1c(Cl)cccc1Cl
- IC50 [3]: 500 nM

Compound: O=C1NCc2nc(Sc3ccc(F)cc3F)c(N3CC4CC3CN4C3CC3)cc2N1c1c(Cl)cccc1Cl (centres undefined)
- IC50 [3]: 8.2 nM
- IC50 [1]: 220 nM

Compound: CN(C)CCN1CCN(c2cc3c(nc2Sc2ccc(F)cc2F)CNC(=O)N3c2c(Cl)cccc2Cl)CC1
- IC50 [3]: 0.7 nM
- IC50 [1]: 14 nM
